The values below are quoted from earlier work in patent US20220225611A1, “NON-NATURAL INSECT PHEROMONE BLEND COMPOSITIONS” (Provivi, Inc., priority 2019, published 2022).

The subject of data set [1] is C. suppressalis. The conditions noted are these: Chen et al. (2018).
For data set [2], the system named is S. incertulas. The conditions noted are these: Cork & Souza (1996).

As to `CCCCCCCC/C=C\CCCCCCCC=O` [Z9-18Ald, (Z)-9-Octadecenal], in data set [1], the “effect on attractiveness of a pheromone mixture” value is on record as “reduces the attractiveness”.

With `CCCC/C=C\CCCCCCCCCCCC=O` [Z13-18Ald, (Z)-13-Octadecenal], the “effect of presence in a pheromone blend on mating disruption” value in data set [2] is reported as “not be produce increased mating disruption”.
